Measured values as given in patent US10265372B2, “Molecular composition for enhancing and rejuvenating maintenance and repair of mammalian tissues” (The Regents of the University of California, priority 2014, dated 2019).
“Also recorded” adds a separate entry of the source.

Legend:
[1] = system: TA muscle regeneration after CTX injury; experiment: In vivo epistasis between TGFβ1 and oxytocin: TA muscle regeneration after CTX injury (FIG. 4A-4B); set-up: species or system mouse; conditions: young (3 mo) mice, CTX-injured TA, 5 days after injury; for Muscle regeneration after injury, effect of ectopic TGFβ1 alone (histology): recombinant TGFβ1 20 ng/muscle
Description: Further support for the advantages of the combined administration of OT and Alk5i comes from the observation of epistasis between the TGF-beta1 and oxytocin.
FIGS. 4A and 4B show the in vivo epistasis between TGFβ1 and Oxytocin. Young (3 mo) mouse TA muscles were injured with CTX with or without recombinant TGFβ1 (20 ng/muscle), and mice were administered 1 μg/g OT or vehicle (HBSS) by subcutaneous delivery into circulation. TGFβ1 or vehicle and OT were administered again the following day. Mice were sacrificed 5 days after injury and muscle sectioned for histological examination (with Hematoxilin and Eosin staining) in 10 um cryosections. All samples were processed and analyzed in a blinded study. […] FIG. 4B depicts the regenerative index of the three different conditions. The regenerative index was quantified by expressing the number of newly formed fibers over total nuclei in the injury/regeneration sites; *p<0.01.

[2] = system: muscle stem cells (satellite cells); conditions: cited from earlier work
[3] = system: muscle stem cells (satellite cells); experiment: Effects of OT and OTA on muscle stem (satellite) cells; type: cell-based, mouse
[4] = system: muscle regeneration; conditions: Elabd et al. 2014, cited from earlier work
[5] = system: muscle regeneration; experiment: Systemic oxytocin or oxytocin antagonist and muscle regeneration in mice; type: in vivo, mouse; conditions: OT alone
Description: OXTR agonists may be used to treat and prevent sarcopenia, improve muscle regeneration after injury and prevent muscle mass loss observed after long term immobilization (bed rest or cast), as well as low gravity (space travel). Specifically, oxytocin is more desirable than other drugs on the market or under development, since it is physiologic, has virtually no side effects and is already FDA approved to induce labor in pregnant women and in clinical trials to treat children with autism. The plasmatic level of oxytocin decreases with age in mice. […] Confirming the dependence of muscle maintenance and repair on oxytocin, mice with a knock out in oxytocin have defective muscle regeneration and premature sarcopenia (loss of muscle tissue). Oxytocin is also known to prevent osteoporosis and regulate fat distribution after menopause. Oxytocin inhibits p16 (marker and effector of senescence) in adult stem cells, thereby enabling their productive responses to maintain and repair tissues.

[6] = system: primary myoblasts; experiment: Primary myoblast proliferation, BrdU pulse, OT/Alk5i dose matrix (FIG. 3A); type: cell-based, mouse; conditions: primary myoblasts in Opti-MEM (low mitogen), OT in nM, Alk5i in μM
Description: (§1) FIGS. 3A-3C depict dose-curve matrices of OT, Alk5i and OT+Alk5i effects on myogenic and neurogenic cell proliferation. FIGS. 3A-3C show the effect of the indicated concentrations of OT (in nM) and Alk5-inhibitor (a5i, μM) on primary myoblasts in Opti-MEM (FIG. 3A); on old satellite cells isolated from 3 DPI muscle in Opti-MEM with 5% old mouse serum (FIG. 3B); and on rat neural precursor cells in basal medium (DMEM/F12/N2) (FIG. 3C). Cells were pulsed with BrdU, and BrdU immunodetection and Hoechst staining were performed. Percent proliferating cells (myogenic and neurogenic) were quantified (manually, by ImageJ and by Molecular Devices ImageXpress Micro automated epifluorescence imager, with automated cell quantification by MetaXpress). Shown is the percent proliferation visualized as a topographic map.
Isolation of Muscle Stem Cells and Primary Myoblasts: Tibialis Anterior (TA) and Gastrocneimus (Gastroc) muscles will undergo enzymatic digestion with collagenase type II. Fat pads and tendons will be removed and rounds of muscle trituration and sedimentation will purify myofibers with associated muscle stem (satellite) cells. Myofibers will be incubated with collagenase type II and dispase; suspensions will be vortexed to release satellite cells from digested fibers, passed through a cell strainer and pre-plated on uncoated dishes for 20 minutes at 37° C., 5% CO2. […]

[7] = system: aged mice
[8] = system: rat neural precursor cells; experiment: Neural precursor cell proliferation in basal medium, BrdU pulse (FIG. 3C); type: cell-based; conditions: rat neural precursor cells in basal medium (DMEM/F12/N2)
Description: as §1
Isolation and Culture of Neural Progenitor Cells: Primary rat neural progenitor cells (NPCs) isolated from the hippocampi of Fisher 344 rats (Charles River) will be maintained in DMEM/F12 (Life Technologies) containing N2 supplement (Life Technologies) and 10 ng/mL FGF-2 (PeproTech) on laminin (Roche) and polyornithine (Sigma) coated tissue culture plates. […]

## CC[C@H](C)[C@@H]1NC(=O)[C@H](Cc2ccc(O)cc2)NC(=O)[C@@H](N)CSSC[C@@H](C(=O)N2CCC[C@H]2C(=O)N[C@@H](CC(C)C)C(=O)NCC(N)=O)NC(=O)[C@H](CC(N)=O)NC(=O)[C@H](CCC(N)=O)NC1=O [OT, oxytocin]
[1]; TGFβ1 20 ng/muscle, OT 1 μg/g subcutaneous
  Muscle regeneration after injury in mice given ectopic TGFβ1 (histology): rescued muscle regeneration; also recorded: rescues the regeneration of young muscle injected with TGFβ1
[2]
  p16 (marker and effector of senescence) in adult stem cells: inhibits p16
[3]; muscle stem cells
  pERK in muscle stem cells: activates pERK
[3]; old satellite cells
  CDKIs in satellite cells: attenuates CDKIs
  Proliferation and myogenicity of old satellite cells: enhances proliferation and myogenicity
[3]; satellite cells of oxytocin knock out (OtKO) mice
  OtKO satellite cell decline: rescues the OtKO satellite cell decline
[4]; old mice, short term subcutaneous injection (systemic delivery)
  Muscle regeneration in old mice: able to restore muscle regeneration
[5]
  Muscle maintenance and repair in old mice: significantly enhances muscle maintenance and repair

## COc1cc(OC2CCN(C(C)=O)CC2)ccc1C(=O)N1CCC(N2C(=O)OCc3ccccc32)CC1 [OTA]
[3]; young satellite cells
  Myogenicity of young satellite cells: inhibits myogenicity
[4]; young mice, injection of oxytocin antagonist
  Muscle regeneration potential in young mice: prematurely ages their muscle regeneration potential

## Cc1cccc(-c2n[nH]cc2-c2ccc3ncccc3n2)n1 [Alk5i, 2-(3-(6-Methylpyridin-2-yl)-1H-pyrazol-4-yl)-1,5-naphthyridine]
[6]
  Percent proliferating cells (BrdU), myoblast proliferation: bi-phasic effect on myoblast proliferation
[7]; aged mice
  Expression of CDKIs: attenuates the expression of CDKIs
[7]; aged/old mice, systemic Alk5i alone, listed as ALK5 inhibitor
  Myogenesis and neurogenesis: simultaneously rejuvenates myogenesis and neurogenesis
[7]; delivered systemically into 2-year old mice
  Inflammation: reduces inflammation
[7]; systemically administered
  pSmads in Sox-2+ cells of SGZ: down-modulating pSmads
[8]
  Percent proliferating cells (BrdU), NPC proliferation: diminishes proliferation of NPCs

## TGFβ1: recombinant TGFβ1, given ectopically into injured muscle (R&D systems)
[1]
  Muscle regeneration after injury, effect of ectopic TGFβ1 alone (histology): promotes scarring
[1]; listed as TGF-beta 1
  Muscle regeneration after injury, effect of ectopic TGFβ1 alone (histology): inhibited muscle regeneration
